In patent US12552753B2, “Methods and compositions for targeting Tregs using CCR8 inhibitors” (Nanjing Immunophage Biomedical Co., Ltd., priority 2020, dated 2026):
Where a name gives a salt, the structure may show the parent alone.

Target: CCR8 (Homo sapiens, UniProt P51685)
Experiment: Tango assay (Tango-CCR8-Gal4-CHO-K1 cells, CCL1-stimulated, ONE-Glo luminescence)
Details: Tango Assay IC50, Inhibition of CCR8 Tango cell in vitro

Sequence of CCR8 (P51685 whole entry, the tested form may be a part): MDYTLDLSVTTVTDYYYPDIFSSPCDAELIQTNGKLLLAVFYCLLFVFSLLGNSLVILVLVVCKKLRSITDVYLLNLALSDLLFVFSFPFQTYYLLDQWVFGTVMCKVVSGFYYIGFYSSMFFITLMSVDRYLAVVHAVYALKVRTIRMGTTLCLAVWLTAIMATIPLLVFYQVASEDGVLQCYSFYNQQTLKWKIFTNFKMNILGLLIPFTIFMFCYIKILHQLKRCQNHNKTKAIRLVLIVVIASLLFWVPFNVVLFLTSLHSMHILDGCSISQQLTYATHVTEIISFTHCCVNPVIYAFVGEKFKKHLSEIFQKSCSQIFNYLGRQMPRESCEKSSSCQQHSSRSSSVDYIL

SMILES | IC50 [nM]
Cc1cc(S(=O)(=O)N[C@H](C)C2C[C@@H]3CCC2N3)ccc1NC(=O)c1ccccc1C (stereo partly drawn) [Compound 228A, N-(4-(N-(1-(exo-7-azabicyclo[2.2.1]heptan-2-yl)ethyl)sulfamoyl)-2-methylphenyl)-2-methylbenzamide hydrochloride] | > 100000
Cc1ccccc1C(=O)Nc1ccc(S(=O)(=O)NC(C)C2CCCN(C(=O)CN(C)C)C2)c2ccccc12 (stereo not shown) [Compound 159, N-(4-(N-(1-(1-(2-(dimethylamino)acetyl)piperidin-3-yl)ethyl)sulfamoyl)naph-thalen-1-yl)-2-methylbenzamide] | > 10000
Cc1ccccc1C(=O)Nc1ccc(S(=O)(=O)NC(C)C=C2CCCCC2)c2ccccc12 (stereo not shown) [Compound 130, N-(4-(N-(1-cyclohexylidene-propan-2-yl)sulfamoyl)naphtha-len-1-yl)-2-methylbenzamide] | 10
Cc1ccccc1C(=O)Nc1ccc(S(=O)(=O)N[C@H](C)C2CCNCC2)cc1C(F)(F)F [Compound 186A, (R)-2-methyl-N-(4-(N-(1-(piperidin-4-yl)ethyl)sulfamoyl)-2-(trifluoromethyl)phenyl) benzamide hydrochloride] | 182
CC(NS(=O)(=O)c1cccc(N2CCC(C(=O)O)C2)c1)C1CCCCC1 (stereo not shown) [Compound 154, 1-(3-(N-(1-cyclohexylethyl)sulfam-oyl)phenyl)pyrrolidine-3-carboxylic acid] | > 10000
Cc1ccccc1C(=O)Nc1c(Cl)cc(S(=O)(=O)N[C@H](C)C2CCNCC2)cc1Cl [Compound 305, (R)-N-(2,6-dichloro-4-(N-(1-(piperidin-4-yl)ethyl)sulfamoyl)phenyl)-2-methylbenzamide hydrochloride] | 1.5
Cc1cc(S(=O)(=O)NC(C)C2CCNCC2)ccc1NC(=O)c1ccccc1Cl (stereo not shown) [Compound 255, 2-chloro-N-(2-methyl-4-(N-(1-(piperidin-4-yl)ethyl)sulfamoyl)phenyl)benzamide] | 30
Cc1cc(S(=O)(=O)N[C@H](C)C2CCNCC2)ccc1NC(=O)c1ccsc1C [Compound 250A, (R)-2-methyl-N-(2-methyl-4-(N-(1-(piperidin-4-yl)ethyl)sulfamoyl)phenyl)thiophene-3-carboxamide hydrochloride] | 105
Cc1cc(S(=O)(=O)N[C@H](C)C2CCN(C(=O)OC(C)(C)C)CC2)c(Cl)cc1NC(=O)c1ccccc1C [Compound 168, (R)-tert-butyl 4-(1-(2-chloro-5-methyl-4-(2-methylbenzamido)phen-ylsulfonamido)ethyl)pi-peridine-1-carboxylate] | 1300
Cc1ccccc1C(=O)Nc1ccc(S(=O)(=O)NC(C)C2CC3CCC2CC3)c2ccccc12 (stereo not shown) [Compound 77, N-(4-(N-(1-(bicyclo[2.2.2]octan-2-yl)ethyl)sulfamoyl)naph-thalen-1-yl)-2-methylbenzamide] | 0.4
Cc1c(C(=O)O)cccc1S(=O)(=O)NC(C)C1CCCCC1 (stereo not shown) [Compound 143, 3-(N-(1-cyclohexylethyl)sul-famoyl)-2-methylbenzoic acid] | > 10000
Cc1cc(S(=O)(=O)N[C@H](C)C2CCNCC2)ccc1NC(=O)c1cncs1 [Compound 252A, (R)-N-(2-methyl-4-(N-(1-(piperidin-4-yl)ethyl)sulfamoyl)phenyl)thiazole-5-carboxamide hydrochloride] | > 100000
CCCN1CCN(c2cc(NS(=O)(=O)c3ccc(NC(=O)c4ccccc4C)c4ccccc34)ccc2C(=O)O)CC1 [Compound 91, 4-(4-(2-methylbenzamido)naph-thalene-1-sulfonamido)-2-(4-propylpiperazin-1-yl)benzoic acid] | > 10000
CC(NS(=O)(=O)c1cccc(N2CCCC2C(=O)O)c1)C1CCCCC1 (stereo not shown) [Compound 152, 1-(3-(N-(1-cyclohexylethyl)sulfam-oyl)phenyl)pyrrolidine-2-carboxylic acid] | > 10000
Cc1ccccc1C(=O)Nc1ccc(S(=O)(=O)NC(=O)c2cccc(N(C)C)c2)c2ccccc12 [Compound 10, N-(4-(N-(3-(dimethylamino)benzoyl)sulfamoyl)naphthalen-1-yl)-2-methylbenzamide] | > 10000
Cc1cc(S(=O)(=O)N[C@H](C)C2CCNCC2)ccc1NC1(c2ccccc2)COC1 [Compound 313, (R)-3-methyl-4-((3-phenyloxetan-3-yl)amino)-N-(1-(piperidin-4-yl)ethyl)benzene-sulfonamide] | 224
CN1CCN(C(=O)N2CCC(NS(=O)(=O)c3ccc(-c4nc5ccccc5[nH]4)cc3)CC2)CC1 [Compound 103, 4-(1H-benzo[d]imidazol-2-yl)-N-(1-(4-methylpiperazine-1-carbonyl)piperidin-4-yl)benzenesulfonamide] | 310
Cc1ccccc1C(=O)Nc1ccc(S(=O)(=O)NC(C)c2cccc(NC(=O)OC(C)(C)C)c2)c2ccccc12 (stereo not shown) [Compound 71, tert-butyl (3-(1-(4-(2-methylbenzamido)naph-thalene-1-sulfonamido)ethyl)phe-nyl)carbamate] | 147

SMILES | IC50 [nM]
Cc1cc(S(=O)(=O)N(C)[C@H](C)C2CCNCC2)ccc1NC(=O)c1ccccc1C [Compound 237A, (R)-2-methyl-N-(2-methyl-4-(N-methyl-N-(1-(piperidin-4-yl)ethyl)sulfamoyl)phenyl)benzamide hydrochloride] | > 100000
Cc1ccccc1C(=O)Nc1ccc(S(=O)(=O)NC(C)C2CCCN(C(=O)OC(C)(C)C)C2)c2ccccc12 (stereo not shown) [Compound 24, tert-butyl 3-(1-(4-(2-methylbenzamido)naph-thalene-1-sulfonamido)ethyl)piper-idine-1-carboxylate] | 930
CCCC(=O)N1CCC(NS(=O)(=O)c2ccc(Nc3nccc4ccccc34)c3ccccc23)CC1 [Compound 114, N-(1-butyrylpiperidin-4-yl)-4-(isoquinolin-1-ylamino)naphthalene-1-sulfonamide] | > 10000
CC(=O)N1CCC(NS(=O)(=O)c2ccc(NC(=O)c3ccccc3C)c3ccccc23)c2ccccc21 (stereo not shown) [Compound 31, N-(4-(N-(1-acetyl-1,2,3,4-tetrahydroquinolin-4-yl)sulfamoyl)naphthalen-1-yl)-2-methylbenzamide] | 1080
Cc1ccccc1C(=O)Nc1ccc(S(=O)(=O)Nc2ccc3c(c2)CN(C(=O)CN(C)C)C3)c2ccccc12 [Compound 37, N-(4-(N-(2-(2-(dimethylamino)acetyl)isoindolin-5-yl)sulfamoyl)naphthalen-1-yl)-2-methylbenzamide] | > 10000
CCCC(=O)N1CCC(NS(=O)(=O)c2ccc(-c3nc4ccccc4[nH]3)cc2)CC1 [Compound 106, 4-(1H-benzo[d]imidazol-2-yl)-N-(1-butyrylpiperidin-4-yl)benzenesulfonamide] | 1140
Cc1ccccc1C(=O)Nc1ccc(S(=O)(=O)N[C@H](C)C2CCN(C(=O)OC(C)(C)C)CC2)cc1Cl [Compound 164, (R)-tert-butyl 4-(1-(3-chloro-4-(2-methylbenzamido)phen-ylsulfonamido)ethyl)piper-idine-1-carboxylate] | > 10000
CCCN1CCN(c2ccc(OC)c(NS(=O)(=O)c3ccc(NC(=O)c4ccccc4C)c4ccccc34)c2)CC1 [Compound 3, N-(4-(N-(2-methoxy-5-(4-propylpiperazin-1-yl)phenyl)sulfamoyl)naphthalen-1-yl)-2-methylbenzamide] | > 10000
CCCC(=O)N1CCCC1C(=O)NS(=O)(=O)c1ccc(NC(=O)c2ccccc2C)c2ccccc12 (stereo not shown) [Compound 7, 1-butyryl-N-((4-(2-methylbenzamido)naph-thalen-1-yl)sulfonyl)pyrrolidine-2-carboxamide] | > 10000
Cc1ccccc1C(=O)Nc1ccc(S(=O)(=O)NC2CCc3n[nH]cc3C2)c2ccccc12 (stereo not shown) [Compound 52, 2-methyl-N-(4-(N-(4,5,6,7-tetrahydro-2H-indazol-5-yl)sulfamoyl)naphthalen-1-yl)benzamide] | > 10000
Cc1ccccc1C(=O)Nc1ccc(S(=O)(=O)NC(C)C23CCN(CC2)CC3)c2ccccc12 (stereo not shown) [Compound 131, 2-methyl-N-(4-(N-(1-(quinuclidin-4-yl)ethyl)sulfamoyl)naphthalen-1-yl)benzamide] | 303
CCN(C)C(=O)C12CC(NS(=O)(=O)c3ccc(NC(=O)c4ccccc4C)c4ccccc34)(C1)C2 [Compound 64, N-ethyl-N-methyl-3-(4-(2-methylbenzamido)naph-thalene-1-sulfonamido)bicyclo [1.1.1]pentane-1-carboxamide] | > 10000
COc1cc(S(=O)(=O)NC(C)C2CC3CCC2CC3)c(C)cc1NC(=O)c1ccccc1C (stereo not shown) [Compound 173, N-(4-(N-(1-(bicyclo[2.2.2]octan-2-yl)ethyl)sulfamoyl)-2-methoxy-5-methylphenyl)-2-methylbenzamide] | 22
Cc1ccccc1C(=O)Nc1ccc(S(=O)(=O)NC(C)C23CC4CC(CC(C4)C2)C3)c2ccccc12 (stereo not shown) [Compound 84, N-(4-(N-(1-((3r,5r,7r)-adamantan-1-yl)ethyl)sulfamoyl)naph-thalen-1-yl)-2-methylbenzamide] | 0.2
Cc1cc(S(=O)(=O)N[C@H](C)C2CCNCC2)ccc1NC(=O)c1nccs1 [Compound 253A, (R)-N-(2-methyl-4-(N-(1-(piperidin-4-yl)ethyl)sulfamoyl)phenyl)thiazole-2-carboxamide hydrochloride] | 851
CCCC(=O)NC12CC(NS(=O)(=O)c3ccc(NC(=O)c4ccccc4C)c4ccccc34)(C1)C2 [Compound 43, N-(4-(N-(3-butyramidobicyclo[1.1.1]pentan-1-yl)sulfamoyl)naphthalen-1-yl)-2-methylbenzamide] | > 10000
CCCC(=O)N1CCC(NS(=O)(=O)c2ccc(N3C(=O)c4ccccc4C3=O)cc2)CC1 [Compound 118, N-(1-butyrylpiperidin-4-yl)-4-(1,3-dioxoisoindolin-2-yl)benzenesulfonamide] | > 10000

Same assay, conditions: read-out: Tango Assay IC50, Inhibition of CCR8 Tango cell in vitro

SMILES | IC50 [nM]
Cc1ccccc1C(=O)Nc1ccc(S(=O)(=O)NC(C)C2CCCN(C(=O)[C@H](C)NC(=O)OC(C)(C)C)C2)c2ccccc12 (single isomer, unassigned) [Compound 157B] | > 10000
Cc1ccccc1C(=O)Nc1ccc(S(=O)(=O)NC(C)C2CCCCN2)c2ccccc12 (stereo not shown) [Compound 69B, 2-methyl-N-(4-(N-(1-(piperidin-2-yl)ethyl)sulfamoyl)naph-thalen-1-yl)benzamide] | > 10000
